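Following 48 hours of exposure in 96-well plates, responses at five concentrations were used to interpolate endpoints linearly. GI50 marks 50% less growth.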 Calls of active or inactive are those of the source. Rule as the data show it: active = GI50 up to about 1.1 µM and inactive = higher.
How the values were obtained:
Assay in all cases: inhibition of tumour cell growth, NCI panel, 48 h
[1] = test system: MDA-N
[2] = test system: UACC-257
[3] = test system: SK-MEL-28
[4] = test system: A549
[5] = test system: CAKI-1
[6] = test system: HT-29
[7] = test system: HL-60
[8] = test system: MDA-MB-435
[9] = test system: K562
[10] = test system: NCI-H460
[11] = test system: BT-549
[12] = test system: MDA-MB-231
[13] = test system: SN12C
[14] = test system: NCI-H23
[15] = test system: SF-539
[16] = test system: SNB-75
[17] = test system: CCRF-CEM
[18] = test system: HCC 2998
[19] = test system: Malme-3M
[20] = test system: KM12
[21] = test system: EKVX
[22] = test system: RPMI-8226
[23] = test system: HOP-62
[24] = test system: SK-MEL-2
[25] = test system: SF-295
[26] = test system: Hs-578T
[27] = test system: UO-31
[28] = test system: SK-MEL-5
[29] = test system: COLO 205
[30] = test system: PC-3
[31] = test system: HCT-116
[32] = test system: UACC-62
[33] = test system: HCT-15
[34] = test system: T47D
[35] = test system: SF-268
[36] = test system: 786-0
[37] = test system: SK-OV-3
[38] = test system: MCF7
[39] = test system: SNB-19
[40] = test system: MOLT-4
[41] = test system: OVCAR-3
[42] = test system: SW-620
[43] = test system: LOX IMVI
[44] = test system: RXF 393
[45] = test system: A498
[46] = test system: SR
[47] = test system: M14
[48] = test system: U-251
[49] = test system: OVCAR-5
[50] = test system: NCI-H226
[51] = test system: NCI-H522
[52] = test system: TK-10
[53] = test system: ACHN
[54] = test system: IGROV-1
[55] = test system: DU-145
[56] = test system: OVCAR-8
[57] = test system: NCI/ADR-RES
[58] = test system: OVCAR-4
[59] = test system: HOP-92

Measured: GI50

CCN(CC)C1Oc2cc3c(cc2C(c2cccc(OC)c2OC)C1C)OCO3 (stereo not drawn)
active: [46] 0.729 µM
inactive: [1] 8.59 µM | [2] 3.95 µM | [3] 14.9 µM | [4] 4.46 µM | [5] 2.82 µM | [6] 3.65 µM | [7] 1.88 µM | [8] 10.1 µM | [9] 3.05 µM | [10] 3.63 µM | [11] 3.4 µM | [12] 13.3 µM | [13] 5.4 µM | [14] 8.47 µM | [15] 10.2 µM | [16] 6.03 µM | [17] 2.17 µM | [18] 11.3 µM | [19] 8.51 µM | [20] 4.9 µM | [21] 13.1 µM | [22] 1.48 µM | [23] 10.8 µM | [24] 6.07 µM | [25] 3.16 µM | [26] 3.66 µM | [27] 4.21 µM | [28] 6.84 µM | [29] 3.85 µM | [30] 4.03 µM | [31] 2.79 µM | [32] 11.4 µM | [34] 3.42 µM | [35] 7.91 µM | [36] 4.16 µM | [37] 4.53 µM | [38] 5.08 µM | [39] 8.07 µM | [40] 4.01 µM | [41] 2.7 µM | [42] 4.24 µM | [43] 3.66 µM | [44] 2.23 µM | [45] 5.81 µM | [47] 12.1 µM | [48] 4.33 µM | [49] 13 µM | [50] 2.05 µM | [51] 4.13 µM | [52] 5.77 µM | [53] 3.22 µM | [54] 4.58 µM | [55] 3.23 µM | [56] 3.56 µM
3.93 µM: [33]

Cc1ccc(/C=N/NC2=NCCN2)s1
inactive: [1] > 100 µM | [2] > 100 µM | [3] > 100 µM | [4] > 100 µM | [5] > 100 µM | [6] > 100 µM | [7] > 100 µM | [8] > 100 µM | [9] 41 µM | [11] 23.3 µM | [12] > 100 µM | [13] > 100 µM | [14] > 100 µM | [15] > 100 µM | [16] > 100 µM | [18] > 100 µM | [19] > 100 µM | [20] > 100 µM | [57] > 100 µM | [21] > 100 µM | [22] > 100 µM | [23] > 100 µM | [24] > 100 µM | [25] > 100 µM | [26] > 100 µM | [27] 44.9 µM | [28] > 100 µM | [29] > 100 µM | [30] > 100 µM | [31] > 100 µM | [32] > 100 µM | [34] > 100 µM | [58] > 100 µM | [35] > 100 µM | [36] > 100 µM | [37] > 100 µM | [38] > 100 µM | [39] > 100 µM | [40] > 100 µM | [41] > 100 µM | [42] > 100 µM | [43] > 100 µM | [44] > 100 µM | [47] > 100 µM | [48] > 100 µM | [49] > 100 µM | [59] > 100 µM | [50] 79.4 µM | [51] > 100 µM | [52] > 100 µM | [53] > 100 µM | [54] > 100 µM | [55] > 100 µM | [56] > 100 µM
> 100 µM: [33]

CC(CCc1nc2ccccc2s1)(c1ccc(O)cc1)c1ccc(O)cc1
inactive: [1] 16.5 µM | [2] 15.3 µM | [3] 19 µM | [4] 18.3 µM | [5] 20.6 µM | [6] 20.1 µM | [8] 16.1 µM | [9] 15.4 µM | [10] 16.4 µM | [11] 19.4 µM | [12] 17.9 µM | [13] 17.9 µM | [14] 17.6 µM | [16] 18.4 µM | [18] 19.7 µM | [19] 16.5 µM | [20] 15.4 µM | [57] 25.4 µM | [21] 16.8 µM | [23] 17.7 µM | [24] 17 µM | [25] 15.6 µM | [26] 20.4 µM | [27] 16.1 µM | [28] 18.4 µM | [30] 14.8 µM | [31] 18.2 µM | [32] 15.9 µM | [34] 24.8 µM | [58] 19.1 µM | [35] 20 µM | [36] 15.1 µM | [39] 17.5 µM | [40] 12.7 µM | [41] 17.5 µM | [42] 19.8 µM | [43] 16 µM | [44] 18 µM | [45] 20.7 µM | [46] 13.6 µM | [47] 16.1 µM | [48] 14.6 µM | [49] 18.1 µM | [59] 20.1 µM | [50] 22.3 µM | [51] 15 µM | [52] 19.9 µM | [53] 18.3 µM | [54] 14.2 µM | [55] 17.1 µM | [56] 21.7 µM
18.4 µM: [33]

— ChEMBL document CHEMBL1201862, “PubChem BioAssay data set” (2004)
